Strand notation (5' to 3'): a small letter for the sugar, then the base; units joined by * are phosphorothioate-linked, units joined directly phosphodiester-linked; [ ] holds rarer units or linkages, { } end groups; capitals alone tell only the bases. e = 2'-O-(2-methoxyethyl) (MOE); [5mC] = 5-methylcytosine; d = 2'-deoxy (DNA)
What was measured:
Factor 11 activity = test: Factor 11 protein activity, F11 assay based on clotting time (Example 45); assay type: in vivo, cynomolgus monkeys; conditions: escalating dose regimen
Procedure: (§1) Groups, each consisting of two male and three female monkeys, were injected subcutaneously with ISIS 416838, ISIS 416850, ISIS 416858, ISIS 416864, or ISIS 417002 in escalating doses. Antisense oligonucleotide was administered to the monkeys at 5 mg/kg three times per a week for week 1; 5 mg/kg twice per week for weeks 2 and 3; 10 mg/kg three times per week for week 4; 10 mg/kg twice per week for weeks 5 and 6; 25 mg/kg three times per week for week 7; and 25 mg/kg twice per week for weeks 8, 9, 10, 11, and 12. One control group, consisting of two male and three female monkeys, was injected subcutaneously with PBS according to the same dosing regimen. An additional experimental group, consisting of two male and three female monkeys, was injected subcutaneously with ISIS 416850 in a chronic, lower dose regimen. Antisense oligonucleotide was administered to the monkeys at 5 mg/kg three times per week for week 1; 5 mg/kg twice per week for week 2 and 3; 10 mg/kg three times per week for week 4; and 10 mg/kg twice per week for weeks 5 to 12. Body weights were measured weekly. Blood samples were collected 14 days and 5 days before the start of treatment and subsequently once per week for Factor 11 protein activity analysis in plasma, fibrinogen measurement, PT and aPTT measurements, bleeding times, and measurement of various hematologic factors. On day 85, the monkeys were euthanized by exsanguination while under deep anesthesia, and organs harvested for further analysis.
Blood samples were collected at various time points and Factor 11 proenzyme was measured using a F11 assay based on clotting time. Clotting times were determined in duplicate with a ST4 semi-automated coagulation instrument (Diagnostica Stago, NJ). Thirty μl of citrated sample plasma diluted 1/20 in HEPES-NaCl buffer with BSA was incubated with 30 μl aPTT reagent (Automated aPTT, Organon Technika, NC) and 30 μl of citrated plasma deficient of Factor 11 (George King Bio-Medical Inc.) at 37° C. for 5 min, followed by the addition of 30 μl of 25 mM CaCl2) to initiate clotting. Results were interpolated on a standard curve of serially diluted citrated control plasma.
Results are presented in Table 118 as percent inhibition of Factor 11 activity, relative to PBS control. The ISIS oligonucleotide, ISIS 416850, given with the chronic dose regimen is distinguished from the other oligonucleotides with an asterisk (*).

[1] = Liver function, ALT, AST, bilirubin in cynomolgus monkeys (Example 45); assay type: in vivo; conditions: plasma, escalating dose regimen
Procedure: as §1
The ISIS oligonucleotide, ISIS 416850, given with the chronic dose regimen is distinguished from the other oligonucleotides with an asterisk (*).

[2] = Kidney function, urine protein to creatinine ratio in cynomolgus monkeys (Example 45); assay type: in vivo
Procedure: as §1
To evaluate the impact of ISIS oligonucleotides on kidney function, urine samples were collected.

[3] = mouse, in vivo
Procedure: A control group of five mice was injected subcutaneously with PBS for 2 weeks. All experimental groups (i.e. ASO treated mice at 2, 4, 6 weeks) were compared to the control group (i.e. PBS, 2 weeks).
Blood obtained from all mice groups were sent to Antech Diagnostics for hematocrit (HCT), mean corpuscular volume (MCV), mean corpuscular hemoglobin (MCH), and mean corpuscular hemoglobin concentration (MCHC) measurements and analyses, as well as measurements of the various blood cells, such as WBC (neutrophils, lymphocytes, and monocytes), RBC, and platelets, and total hemoglobin content.

[4] = Tolerability in Sprague-Dawley rats: hematology assays (Example 42); conditions: 50 mg/kg s.c. twice per week for 6 weeks, blood
[5] = Tolerability in CD1 mice: hematology assays (Example 41); conditions: 50 mg/kg s.c. twice per week for 6 weeks, blood
[6] = Tolerability in CD1 mice: kidney function, BUN (Example 41); conditions: 50 mg/kg s.c. twice per week for 6 weeks, plasma

Substance | percent inhibition of Factor 11 activity, relative to PBS control (Factor 11 activity; day 8) [%] | percent inhibition of Factor 11 activity, relative to PBS control (Factor 11 activity; day 15) [%] | percent inhibition of Factor 11 activity, relative to PBS control (Factor 11 activity; day 22) [%] | percent inhibition of Factor 11 activity, relative to PBS control (Factor 11 activity; day 29) [%] | percent inhibition of Factor 11 activity, relative to PBS control (Factor 11 activity; day 36) [%] | percent inhibition of Factor 11 activity, relative to PBS control (Factor 11 activity; day 43) [%] | percent inhibition of Factor 11 activity, relative to PBS control (Factor 11 activity; day 50) [%] | percent inhibition of Factor 11 activity, relative to PBS control (Factor 11 activity; day 57) [%] | percent inhibition of Factor 11 activity, relative to PBS control (Factor 11 activity; day 64) [%] | percent inhibition of Factor 11 activity, relative to PBS control (Factor 11 activity; day 71) [%] | percent inhibition of Factor 11 activity, relative to PBS control (Factor 11 activity; day 78) [%] | percent inhibition of Factor 11 activity, relative to PBS control (Factor 11 activity; day 85) [%] | percent inhibition of Factor 11 activity, relative to PBS control (Factor 11 activity; day −5) [%] | percent inhibition of Factor 11 activity, relative to PBS control (Factor 11 activity; day −14) [%] | ALT ([1]; day 22) [IU/L] | AST ([1]; day 22) [IU/L] | Bilirubin ([1]; day 22) [mg/dL] | ALT ([1]; day 43) [IU/L] | AST ([1]; day 43) [IU/L] | Bilirubin ([1]; day 43) [mg/dL] | other results
ISIS 416838: MOE gapmer, nucleobases 1018 to 1042 of SEQ ID NO: 1 (Table 6) (antisense GCAACCGGGATGATGAGTGC; MOE gapmer, wing and gap sizes not given here) | 3 | 4 | 5 | 8 | 11 | 5 | 8 | 10 | 11 | 12 | 10 | 10 | 0 | 0 | 36 | 39 | 0.17 | 35 | 32 | 0.17 | ALT ([1]; day 64): 40 IU/L; AST ([1]; day 64): 33 IU/L; Bilirubin ([1]; day 64): 0.15 mg/dL; ALT ([1]; day 85): 41 IU/L; AST ([1]; day 85): 30 IU/L; Bilirubin ([1]; day 85): 0.13 mg/dL; ALT ([1]; day −14): 76 IU/L; AST ([1]; day −14): 139 IU/L; Bilirubin ([1]; day −14): 0.26 mg/dL; urine protein to creatinine ratio ([2]; Day 80): 0.13; urine protein to creatinine ratio ([2]; Day 84): 0.13; RBC count [3]: 8 cells/pL
ISIS 445522: 5-8-5 or 6-8-6 MOE microwalk gapmer (Table 44) (antisense eG*e[5mC]*eA*e[5mC]*eA*dG*dT*dT*dT*d[5mC]*dT*dG*dG*e[5mC]*eA*eG*eG*e[5mC]) |  |  |  |  |  |  |  |  |  |  |  |  |  |  |  |  |  |  |  |  | HCT [4]: 47%; Lymphocyte [4]: 84%; Neutrophil [4]: 13%; Platelets [4]: 1334 nL⁻¹; RBC [4]: 7.7 pL⁻¹; WBC [4]: 18 nL⁻¹; hemoglobin [4]: 13.6 g/dL; monocytes [4]: 2.8%; HCT [5]: 49%; Lymphocyte [5]: 3997; Neutrophil [5]: 698; Platelets [5]: 1005; RBC [5]: 9.7; WBC [5]: 5; hemoglobin [5]: 14.6 g/dL; BUN [6]: 28 mg/dL
ISIS 416858: MOE gapmer, nucleobases 1275 to 1318 of SEQ ID NO: 1 (Table 8) (antisense ACGGCATTGGTGCACAGTTT; MOE gapmer, wing and gap sizes not given here) | 6 | 16 | 23 | 28 | 35 | 39 | 49 | 60 | 68 | 71 | 73 | 78 | 0 | 0 | 28 | 38 | 0.18 | 36 | 39 | 0.14 | ALT ([1]; day 64): 47 IU/L; AST ([1]; day 64): 50 IU/L; Bilirubin ([1]; day 64): 0.12 mg/dL; ALT ([1]; day 85): 50 IU/L; AST ([1]; day 85): 49 IU/L; Bilirubin ([1]; day 85): 0.14 mg/dL; ALT ([1]; day −14): 47 IU/L; AST ([1]; day −14): 58 IU/L; Bilirubin ([1]; day −14): 0.27 mg/dL; urine protein to creatinine ratio ([2]; Day 80): 0.10; urine protein to creatinine ratio ([2]; Day 84): 0.07; RBC count [3]: 9 cells/pL
ISIS 416864: MOE gapmer, nucleobases 1275 to 1318 of SEQ ID NO: 1 (Table 8) (antisense GGCAGCGGACGGCATTGGTG; MOE gapmer, wing and gap sizes not given here) | 7 | 9 | 7 | 10 | 9 | 9 | 10 | 7 | 5 | 10 | 9 | 8 | 5 | 0 | 37 | 41 | 0.22 | 36 | 40 | 0.17 | ALT ([1]; day 64): 43 IU/L; AST ([1]; day 64): 46 IU/L; Bilirubin ([1]; day 64): 0.16 mg/dL; ALT ([1]; day 85): 43 IU/L; AST ([1]; day 85): 56 IU/L; Bilirubin ([1]; day 85): 0.17 mg/dL; ALT ([1]; day −14): 54 IU/L; AST ([1]; day −14): 76 IU/L; Bilirubin ([1]; day −14): 0.31 mg/dL; urine protein to creatinine ratio ([2]; Day 80): 0.36; urine protein to creatinine ratio ([2]; Day 84): 0.34; MCHC ([3]; sc, 50 mg/kg): 31%

Reference: US20230263822A1, “MODULATION OF FACTOR 11 EXPRESSION” (Ionis Pharmaceuticals, Inc., priority 2008, published 2023)
